These results are taken from PubChem BioAssay AID2060901 (Molecular Pharmacology Branch, DTP, NCI, 2025).

Each structure is given as a SMILES string. Where “and” joins values, the source holds several entries; their conditions need not be identical. Identical values can stand only once. A value given as a limit tells only on which side of the number the result lay.

The subject of the test is 422866-222-R5-J1-PDC complex spheroids viability. In words: Anticancer human tumor 422866-222-R5-J1-PDC patient-derived pancreatic adenocarcinoma cell line growth inhibition [RAS]. The conditions noted are these: for viability, T/C: stronger effect = lower value. The method, boiled down: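 Multi-cell-type spheroids: tumor cells plus HUVEC endothelial cells and mesenchymal stem cells. RAS-pathway inhibitors were combined with targeted agents, each dosed in half-log steps down from clinical Cmax, or from 10 microM when Cmax was unknown.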

Where [1] appears, read: curve of first compound, second compound 0.0316 µM.
[2] abbreviates: curve of first compound, second compound 0.1 µM.
The mark [3] stands for this setting: curve of first compound, second compound 0.316 µM.
Setting [4] is: curve of first compound, second compound 1 µM.
The mark [5] stands for this setting: second compound 0.0316 µM, first compound 0.0316 µM.
Setting [6] is: second compound 0.0316 µM, first compound 0.1 µM.
[7] abbreviates: second compound 0.1 µM, first compound 0.0316 µM.
The mark [8] stands for this setting: second compound 0.1 µM, first compound 0.1 µM.
Setting [9] is: second compound 0.316 µM, first compound 0.0316 µM.
Setting [10] is: second compound 0.316 µM, first compound 0.1 µM.
The mark [11] stands for this setting: second compound 1 µM, first compound 0.0316 µM.
[12] abbreviates: second compound 1 µM, first compound 0.1 µM.
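Further: spheroids exposed to compounds for 7 days.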
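Wherever viability, T/C is given: 100% = DMSO vehicle control viability.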

What is called IC50 is the midpoint of a concentration-inhibition curve. One may read the viability, T/C as the result in the treated group divided by that in the control group, in per cent. On to `CC(Nc1ccc2c(c1)OCCn1cc(N3C(=O)OCC3C(F)F)nc1-2)C(N)=O` (stereo unspecified) + C=CC(=O)N1CCN(c2nc(OCC3CCCN3C)nc3c(F)c(-c4nc(N)cc(C)c4C(F)(F)F)c(Cl)cc23)C(C)C1, for which the IC50 is < 31.6 nM (curve of first compound, second compound 0.00316 µM); < 31.6 nM (curve of first compound, second compound 0.01 µM); < 31.6 nM under setting [1]; < 31.6 nM under setting [2]; < 31.6 nM under setting [3]; < 31.6 nM under setting [4]. Moreover, the viability, T/C was 20.8% (second compound 0.00316 µM, first compound 0.0316 µM); 19.9% (second compound 0.00316 µM, first compound 0.1 µM); 12.6% (second compound 0.00316 µM, first compound 0.316 µM); 11% (second compound 0.00316 µM, first compound 1 µM); 7.97% (second compound 0.00316 µM, first compound 3.16 µM); 7.01% (second compound 0.00316 µM, first compound 10 µM). Moreover, the viability, T/C is 19.1% (second compound 0.01 µM, first compound 0.0316 µM); 18% (second compound 0.01 µM, first compound 0.1 µM); 13.5% (second compound 0.01 µM, first compound 0.316 µM); 6.65% (second compound 0.01 µM, first compound 1 µM); 7.17% (second compound 0.01 µM, first compound 3.16 µM); 4.82% (second compound 0.01 µM, first compound 10 µM). For the same molecule, the viability, T/C under setting [5] is 24.5%; the viability, T/C under setting [6] is 14.3%; the viability, T/C (second compound 0.0316 µM, first compound 0.316 µM) is 9.64%; the viability, T/C (second compound 0.0316 µM, first compound 1 µM) was 7.15%; the viability, T/C (second compound 0.0316 µM, first compound 3.16 µM) was 5.78%; the viability, T/C (second compound 0.0316 µM, first compound 10 µM) is 4.99%. In addition, the viability, T/C by setting is: under setting [7], 14.6%; under setting [8], 10.9%; (second compound 0.1 µM, first compound 0.316 µM) 9.29%; (second compound 0.1 µM, first compound 1 µM) 8.93%; (second compound 0.1 µM, first compound 3.16 µM) 5.79%; (second compound 0.1 µM, first compound 10 µM) 5.64%. For the same molecule, the viability, T/C was 18.3% under setting [9]; 11% under setting [10]; 9.82% (second compound 0.316 µM, first compound 0.316 µM); 6.95% (second compound 0.316 µM, first compound 1 µM); 6.91% (second compound 0.316 µM, first compound 3.16 µM); 7.16% (second compound 0.316 µM, first compound 10 µM). For the same molecule, the viability, T/C reads like this: under setting [11], 16.5%; under setting [12], 15.8%; (second compound 1 µM, first compound 0.316 µM) 9.93%; (second compound 1 µM, first compound 1 µM) 7.52%; (second compound 1 µM, first compound 3.16 µM) 6.84%; (second compound 1 µM, first compound 10 µM) 7.05%.

For the molecule `CC(C)NCC(C(=O)N1CCN(c2ncnc3c2C(C)CC3O)CC1)c1ccc(Cl)cc1` (stereo unspecified), the viability, T/C runs as follows: (compound 0.0316 µM) 92.2% [middle of 4 runs]; (compound 0.1 µM) 93.6% [middle of 4 runs]; (compound 10 µM) 133% (2×) and 147% and 160%. Further, the IC50 (curve of compound) was > 10000 nM.

As for `CC(C)n1nc(-c2ccc3oc(N)nc3c2)c2c(N)ncnc21` + C#Cc1c(F)ccc2cc(O)cc(-c3ncc4c(N5CC6CCC(C5)N6)nc(OCC56CCCN5CC(F)C6)nc4c3F)c12, the IC50 was > 100 nM under setting [1]; > 100 nM under setting [2]; > 100 nM under setting [3]; < 0.316 nM under setting [4]; < 0.316 nM (curve of first compound, second compound 3.16 µM); < 0.316 nM (curve of first compound, second compound 10 µM). Also, the viability, T/C by setting is: (second compound 0.0316 µM, first compound 0.000316 µM) 90.6%; (second compound 0.0316 µM, first compound 0.001 µM) 104%; (second compound 0.0316 µM, first compound 0.00316 µM) 73.3%; (second compound 0.0316 µM, first compound 0.01 µM) 54.9%; under setting [5], 77.6%; under setting [6], 68.4%. Also, the viability, T/C reads like this: (second compound 0.1 µM, first compound 0.000316 µM) 62.5%; (second compound 0.1 µM, first compound 0.001 µM) 75.1%; (second compound 0.1 µM, first compound 0.00316 µM) 65.4%; (second compound 0.1 µM, first compound 0.01 µM) 54.6%; under setting [7], 80%; under setting [8], 56.8%. Besides, the viability, T/C (second compound 0.316 µM, first compound 0.000316 µM) is 66.4%; the viability, T/C (second compound 0.316 µM, first compound 0.001 µM) was 62.1%; the viability, T/C (second compound 0.316 µM, first compound 0.00316 µM) was 60%; the viability, T/C (second compound 0.316 µM, first compound 0.01 µM) was 49.7%; the viability, T/C under setting [9] is 58.6%; the viability, T/C under setting [10] is 61.7%. Moreover, the viability, T/C by setting is: (second compound 1 µM, first compound 0.000316 µM) 42.5%; (second compound 1 µM, first compound 0.001 µM) 37.9%; (second compound 1 µM, first compound 0.00316 µM) 28.2%; (second compound 1 µM, first compound 0.01 µM) 26.7%; under setting [11], 44%; under setting [12], 48.5%. In addition, the viability, T/C was 31.5% (second compound 3.16 µM, first compound 0.000316 µM); 26% (second compound 3.16 µM, first compound 0.001 µM); 25.8% (second compound 3.16 µM, first compound 0.00316 µM); 19.8% (second compound 3.16 µM, first compound 0.01 µM); 20.9% (second compound 3.16 µM, first compound 0.0316 µM); 19.3% (second compound 3.16 µM, first compound 0.1 µM). Also, the viability, T/C (second compound 10 µM, first compound 0.000316 µM) is 18.8%; the viability, T/C (second compound 10 µM, first compound 0.001 µM) was 21.7%; the viability, T/C (second compound 10 µM, first compound 0.00316 µM) was 17.4%; the viability, T/C (second compound 10 µM, first compound 0.01 µM) is 15.2%; the viability, T/C (second compound 10 µM, first compound 0.0316 µM) was 18.1%; the viability, T/C (second compound 10 µM, first compound 0.1 µM) is 15.1%.

In the case of `C[C@@H](NC(=O)c1ncnc(N)c1Cl)c1ncc(C(=O)Nc2cc(C(F)(F)F)c(Cl)cn2)s1`, the viability, T/C by setting is: (compound 0.0316 µM) 131% and 103% (2×) and 113%; (compound 0.1 µM) 124% and 116% (2×) and 104%; (compound 0.316 µM) 119% [middle of 4 runs]; (compound 1 µM) 118% [middle of 4 runs]; (compound 3.16 µM) 104% (2×) and 83.4% and 92.5%; (compound 10 µM) 76.6% [middle of 4 runs]. For the same molecule, the IC50 (curve of compound) is > 10000 nM.

`C#Cc1c(F)ccc2cc(O)cc(-c3ncc4c(N5CC6CCC(C5)N6)nc(OCC56CCCN5CC(F)C6)nc4c3F)c12` (stereo unspecified): the viability, T/C (compound 0.0316 µM) was 98.7% [middle of 8 runs]; the viability, T/C (compound 0.316 µM) was 67.4% [middle of 8 runs]; the viability, T/C (compound 1 µM) was 51.8% [middle of 8 runs]; the viability, T/C (compound 3.16 µM) is 37.3% [middle of 8 runs]; the viability, T/C (compound 10 µM) is 26.2% [middle of 8 runs]. In addition, the IC50 (compound alone, run of 06/10/2024) was 1.11 µM [middle of 8 runs].
